Entries after “also recorded” stand apart in the source; their conditions may differ. Where two headings read alike, the source gives them in different places.
Experiments:
[1] = tested on: MDA-MB-468 triple negative breast cancer cells; experiment: MTS cytotoxicity assay in MDA-MB-468 triple negative breast cancer cells; assay type: cell-based; conditions: for effect on MDA-MB 468 TNBC cell viability: 10, 50 and 100 μM for 24, 48 and 72 hours, MTS; for IC50: Homo sapiens, MDA-MB-468, 72 hours, mean ± SD n = 3
Method: The assay was performed as follows.
Derivatives were dosed at 10, 50 and 100 μM for 24, 48 and 72 hours and cell viability measured by MTS assay (FIG. 5).

[2] = tested on: VEGF-induced proliferation of HUVEC cells; experiment: VEGF-induced HUVEC proliferation, MTT assay; assay type: cell-based, human; conditions: for inhibition of VEGF-induced HUVEC proliferation (in words): 20 μM; for inhibition at 20 µM: Homo sapiens, read-out: % Inhibition of Proliferation
Method: The assay was performed as follows. Vascular endothelial growth factor (VEGF, Cat #SRP3182) was purchased from Sigma. […] Stock solutions of all compounds were prepared in DMSO and were serially diluted for cell culture treatment maintaining the final DMSO concentration at less than 1%. Cell proliferation of HUVECs was evaluated through the MTT (3-[4, 5-dimethylthiazol-2-yl]-2, 5-dimethyltetrazolium bromide) colorimetric assay, as previously described.^28 The HUVECs were seeded at a density of 10,000 cells/well in 24 well plates in serum-containing medium and cultured overnight. Cells were starved with 300 μL of assay media (0.1% BSA+0.1% FBS in basal medium) for 24 h. Then, cells were treated with 500 μL of assay medium (control group), VEGF (10 ng/mL, positive control group) or VEGF along with compounds (20 μM). After 48 h of culture, 50 μL of MTT stock (5 mg/mL in PBS) was added to each well and incubated for 2 h at 37° C. to allow the formation of dark blue formazan crystals in the metabolically active cells. The medium was removed, the cells were washed with PBS (pH 7.4), and 100 μL of acidified isopropanol (0.33 mL HCl in 100 mL isopropanol) was added to each well and incubated for 5 min with thorough agitation to solubilize the formazan crystals. An equal volume of the solution was transferred to a 96-well plate and the absorbance was immediately measured using a microplate reader at a wavelength of 570 nm.

[3] = tested on: 22Rv1 prostate cancer cells; experiment: MTS cytotoxicity assay in 22Rv1 prostate cancer cells; conditions: for cytotoxicity at 100 µM: Homo sapiens, 22Rv1, 48 h, read-out: reduction of 22Rv1 cell viability
Method: The assay was performed as follows. To determine the cell growth inhibition ability of the synthesized compounds the (3-(4,5-dimethylthiazol-2-yl)-5-(3-carboxymethoxyphenyl)-2-(4-sulfophenyl)-2H-tetrazolium) (MTS) assay used according to the manufacturer's recommended protocol. Stock solutions of the synthesized compounds were prepared in DMSO. Cells were seeded at a density of 1×10^5 cells in 96-well plates. After 24 hours, cells were treated at the indicated concentrations of test compounds, limiting the final DMSO concentration to less than 1%. After incubation at 37° C. in an environment of 5% CO2 for 48-72 hours, 10 μL of MTS reagent (CellTiter 96© AQueous One Solution Reagent) was added to each well and incubated at the above mentioned conditions for 2-4 hr. Absorbance was recorded at 490 nm on a BioTek Synergy Mx multimode plate reader and the viability of cells were plotted as percentage of controls.

[4] = biological target: T1, Mitochondrial respiratory complex II (Rattus norvegicus, UniProt P21913+Q641Z9+Q6PCT8+Q920L2); experiment: Mitochondrial respiratory complex II inhibition assay; assay type: biochemical; conditions: for inhibition at 100 µM: read-out: inhibition of CII; for IC50: isolated rat heart mitochondria, mean ±SD of n = 4, read-out: CII IC50
T1 construct: measured spectrophotometrically using isolated rat heart mitochondria; from tissue; host or cells: rat heart mitochondria / sub-mitochondrial particles
T1 sequence (Q920L2 35-656): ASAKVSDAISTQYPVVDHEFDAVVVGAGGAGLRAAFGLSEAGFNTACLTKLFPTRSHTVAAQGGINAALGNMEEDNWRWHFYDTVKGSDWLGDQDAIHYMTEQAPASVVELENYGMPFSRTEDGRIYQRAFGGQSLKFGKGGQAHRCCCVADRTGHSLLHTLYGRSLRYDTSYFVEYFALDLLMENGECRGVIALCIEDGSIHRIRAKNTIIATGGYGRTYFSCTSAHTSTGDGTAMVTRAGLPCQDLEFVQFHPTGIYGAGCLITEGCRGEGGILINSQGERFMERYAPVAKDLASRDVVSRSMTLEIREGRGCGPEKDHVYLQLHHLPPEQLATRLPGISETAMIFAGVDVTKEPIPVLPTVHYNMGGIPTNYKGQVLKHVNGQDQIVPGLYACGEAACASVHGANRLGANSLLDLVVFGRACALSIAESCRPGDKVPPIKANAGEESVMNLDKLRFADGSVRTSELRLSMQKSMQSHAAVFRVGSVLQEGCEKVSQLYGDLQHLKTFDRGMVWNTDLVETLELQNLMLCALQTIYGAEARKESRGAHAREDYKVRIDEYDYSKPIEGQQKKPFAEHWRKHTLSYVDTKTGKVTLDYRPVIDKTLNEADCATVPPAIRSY
T1 sequence (P21913 31-282): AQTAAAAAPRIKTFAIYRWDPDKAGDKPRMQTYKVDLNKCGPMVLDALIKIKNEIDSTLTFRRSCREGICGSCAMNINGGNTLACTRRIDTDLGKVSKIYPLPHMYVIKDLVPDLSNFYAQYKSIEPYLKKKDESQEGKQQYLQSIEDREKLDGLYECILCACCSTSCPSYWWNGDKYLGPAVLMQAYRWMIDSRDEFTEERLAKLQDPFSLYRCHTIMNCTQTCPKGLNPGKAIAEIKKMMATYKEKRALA
T1 sequence (Q641Z9 1-169): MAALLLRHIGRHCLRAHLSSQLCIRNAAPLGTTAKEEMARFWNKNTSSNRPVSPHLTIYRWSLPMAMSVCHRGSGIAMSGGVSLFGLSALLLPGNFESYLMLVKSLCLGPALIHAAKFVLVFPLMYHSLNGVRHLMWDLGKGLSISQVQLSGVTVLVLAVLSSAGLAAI
T1 sequence (Q6PCT8 57-159): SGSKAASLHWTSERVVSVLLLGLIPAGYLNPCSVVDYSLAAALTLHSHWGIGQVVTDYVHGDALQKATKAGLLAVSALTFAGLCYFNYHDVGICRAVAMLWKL
Method: The assay was performed as follows. Mitochondria were isolated either from fresh rat hearts or by differential centrifugation in sucrose-based buffer as previously described.^24 Complex II enzymatic activity was determined spectrophotometrically as the rate of succinate-driven, co-enzyme Q2-linked reduction of dichlorophenolindophenol (DCPIP).^49 Mitochondria or sub-mitochondrial particles were incubated in phosphate buffer (pH 7.4) containing 40 μM DCPIP, 1 mM KCN, 10 μM rotenone, and 50 μM co-enzyme Q2. The rate of reduction of DCPIP to DCPIPH2 was followed at […] (ε=21,000 M-1). Varying amounts of succinate and inhibitors were used to determine an IC50 value. At the end of each run thenoyltrifluoroacetone (1 mM) was added and the residual TTFA-insensitive rate subtracted.

[5] = HUVEC, 48 h, 20 μM compound, VEGF 10 ng/mL, HUVEC, 48 h, relative to VEGF treated cells, mean ± SEM n = 3
[6] = 100 μM, relative to DMSO control

Row | SMILES | inhibition at 100 µM [4, 6] | effect on MDA-MB 468 TNBC cell viability [1] | inhibition of VEGF-induced HUVEC proliferation (in words) ([2]; VEGF 10 ng/mL) | inhibition at 20 µM [2, 5] | cytotoxicity at 100 µM [3] | other results
1 | O=S1(=O)NC(=S)Nc2ccc(F)cc21 [Compound 12a, 7-fluoro-3-thioxo-3,4-dihydro-2H-1,2,4-benzothiadiazine 1,1-dioxide] |  | no reduction of cell viability | no appreciable inhibition | 50 ± 35% |  | 
2 | O=S1(=O)NC(=S)Nc2cc(Cl)ccc21 [Compound 12b, 6-chloro-3-thioxo-3,4-dihydro-2H-1,2,4-benzothiadiazine 1,1-dioxide] | 81% |  |  | 0% | 12% | IC50 [4]: 11.9 µM
3 | O=S1(=O)NC(=S)Nc2ccc(Br)cc21 [Compound 12c, 7-bromo-3-thioxo-3,4-dihydro-2H-1,2,4-benzothiadiazine 1,1-dioxide] | 55% |  |  |  | 16% | IC50 [4]: 37 µM
4 | CC(C)C(C)NC1=NS(=O)(=O)c2cc(F)ccc2N1 (centres unmarked) [Compound 15a, 7-fluoro-3-((3-methylbutan-2-yl)amino)-4H-benzo[e][1,2,4]thiadiazine 1,1-dioxide] |  | substantially less active | no appreciable inhibition | 76 ± 18% |  | 
5 | O=S1(=O)N=C(NCCc2ccccc2)Nc2ccc(Br)cc21 [Compound 18c, 7-bromo-3-(phenethylamino)-4H-benzo[e][1,2,4]thiadiazine 1,1-dioxide] |  | potent activity |  |  |  | inhibition at 20 µM ([2]; HUVEC, 48 h): 47 ± 24%
6 | COc1ccc(CNC2=NS(=O)(=O)c3ccccc3N2)cc1 [Compound 20d, 3-((4-methoxybenzyl)amino)-4H-benzo[e][1,2,4]thiadiazine 1,1-dioxide] |  | no reduction of cell viability |  |  |  | 
7 | O=S1(=O)N=C(NC2CCCC2)Nc2cc(Cl)ccc21 [Compound 22b, 6-chloro-3-(cyclopentylamino)-4H-benzo[e][1,2,4]thiadiazine 1,1-dioxide] |  |  |  |  | ~35% | IC50 [1]: 148 ± 26.3 µM
8 | O=S1(=O)N=C(NCc2ccc(C(F)(F)F)cc2)Nc2ccc(Br)cc21 [Compound 25c, 7-bromo-3-((4-(trifluoromethyl)benzyl)amino)-4H-benzo[e][1,2,4]thiadiazine 1,1-dioxide] |  |  |  |  | 34% | 
9 | O=S1(=O)N=C(NCc2ccc(OC(F)(F)F)cc2)Nc2ccccc21 [Compound 30d, 3-((4-(trifluoromethoxy)benzyl)amino)-4H-benzo[e][1,2,4]thiadiazine 1,1-dioxide] |  |  |  |  | ~30% | 
10 | O=S1(=O)N=C(NCCc2ccc(Cl)cc2)Nc2ccc(F)cc21 [Compound 37a, 3-((4-chlorophenethyl)amino)-7-fluoro-4H-benzo[e][1,2,4]thiadiazine 1,1-dioxide] | 34% |  |  |  |  | reduction of 22Rv1 cell viability ([3]; 100 μM, 48 hrs treatment, MTS): inactive
11 | CC(C)NC1=NS(=O)(=O)c2ccccc2N1C [Compound 43d, 3-(isopropylamino)-4-methyl-4H-benzo[e][1,2,4]thiadiazine 1,1-dioxide] |  | no reduction of cell viability |  |  |  | 
12 | COc1ccc(CNC2=NS(=O)(=O)c3cc(Cl)ccc3N2)cc1 [Compound 56e, 7-Chloro-3-((4-methoxybenzyl)amino)-4H-benzo[e][1,2,4]thiadiazine 1,1-dioxide] |  |  | suppressed HUVEC proliferation; also recorded: enhanced activity | 91 ± 15% |  | IC50 [1]: 62.9 ± 4.2 µM
13 | Cc1ccc(CNC2=NS(=O)(=O)c3cc(Cl)ccc3N2)cc1 [Compound 61e, 7-Chloro-3-((4-methylbenzyl)amino)-4H-benzo[e][1,2,4]thiadiazine 1,1-dioxide] |  |  | suppressed HUVEC proliferation; also recorded: enhanced activity | 119 ± 10% |  | IC50 [1]: 43.1 µM

Second part, led by results:

Row | inhibition at 100 µM [4, 6] | SMILES | effect on MDA-MB 468 TNBC cell viability [1] | inhibition of VEGF-induced HUVEC proliferation (in words) ([2]; VEGF 10 ng/mL) | inhibition at 20 µM [2, 5] | cytotoxicity at 100 µM [3] | other results
14 | 64% | COc1ccc(CNC2=NS(=O)(=O)c3cc(Br)ccc3N2)cc1 [Compound 20c, 7-bromo-3-((4-methoxybenzyl)amino)-4H-benzo[e][1,2,4]thiadiazine 1,1-dioxide] | potent activity |  |  | 41% | IC50 [4]: 79.7 µM
15 | 14% | O=S1(=O)N=C(NCCCc2ccccc2)Nc2ccc(F)cc21 [Compound 23a, 7-fluoro-3-((3-phenylpropyl)amino)-4H-benzo[e][1,2,4]thiadiazine 1,1-dioxide] | almost complete amelioration of cell viability | no appreciable inhibition | 0% |  | % Inhibition of Proliferation ([2]; 20 μM compound, VEGF 10 ng/mL, HUVEC, 48 h, relative to VEGF treated cells, mean ± SEM n = 3): inactive
16 | 46% | O=S1(=O)N=C(NCCCc2ccccc2)Nc2ccc(Br)cc21 [Compound 23c, 7-bromo-3-((3-phenylpropyl)amino)-4H-benzo[e][1,2,4]thiadiazine 1,1-dioxide] |  |  | 24 ± 41% | 42% | inhibition of CII [4, 6]: 47%
17 | 22% | CC(NC1=NS(=O)(=O)c2cc(F)ccc2N1)c1ccccc1 (centres unmarked) [Compound 24a, 7-fluoro-3-((1-phenylethyl)amino)-4H-benzo[e][1,2,4]thiadiazine 1,1-dioxide] |  |  |  | 34% | 
18 | 51% | CC(NC1=NS(=O)(=O)c2ccc(Cl)cc2N1)c1ccccc1 (centres unmarked) [Compound 24b, 6-chloro-3-((1-phenylethyl)amino)-4H-benzo[e][1,2,4]thiadiazine 1,1-dioxide] |  |  | 38 ± 33% | 50% | IC50 [4]: 89 µM
19 | 55% | CC(NC1=NS(=O)(=O)c2cc(Br)ccc2N1)c1ccccc1 (centres unmarked) [Compound 24c, 7-bromo-3-((1-phenylethyl)amino)-4H-benzo[e][1,2,4]thiadiazine 1,1-dioxide] |  |  |  | 70% | IC50 [4]: 79.8 µM
20 | 37% | COc1ccccc1CNC1=NS(=O)(=O)c2cc(F)ccc2N1 [Compound 26a, 7-fluoro-3-((2-methoxybenzyl)amino)-4H-benzo[e][1,2,4]thiadiazine 1,1-dioxide] | almost complete amelioration of cell viability | no appreciable inhibition | 29 ± 33% |  | 
21 | 38% | C=CCNC1=NS(=O)(=O)c2cc(F)ccc2N1 [Compound 32a, 3-(allylamino)-7-fluoro-4H-benzo[e][1,2,4]thiadiazine 1,1-dioxide] |  |  |  | 24% | 
22 | 17% | O=S1(=O)N=C(NCCc2c[nH]c3ccccc23)Nc2ccc(F)cc21 [Compound 36a, 3-((2-(1H-indol-3-yl)ethyl)amino)-7-fluoro-4H-benzo[e][1,2,4]thiadiazine 1,1-dioxide] | almost complete amelioration of cell viability | no appreciable inhibition | 41 ± 26% | 30% | 
